Measured values as given in patent US10420734B2, “Method of treating cancer using selective estrogen receptor modulators” (Duke University, priority 2014, dated 2019).

Key:
ESR1 = target: T1, ESR1 (Homo sapiens, UniProt P03372); test: ESR1 expression in MCF7 cells (immunoblot, mRNA, MG132 pre-treatment); assay type: cell-based
T1 sequence (P03372 1-595): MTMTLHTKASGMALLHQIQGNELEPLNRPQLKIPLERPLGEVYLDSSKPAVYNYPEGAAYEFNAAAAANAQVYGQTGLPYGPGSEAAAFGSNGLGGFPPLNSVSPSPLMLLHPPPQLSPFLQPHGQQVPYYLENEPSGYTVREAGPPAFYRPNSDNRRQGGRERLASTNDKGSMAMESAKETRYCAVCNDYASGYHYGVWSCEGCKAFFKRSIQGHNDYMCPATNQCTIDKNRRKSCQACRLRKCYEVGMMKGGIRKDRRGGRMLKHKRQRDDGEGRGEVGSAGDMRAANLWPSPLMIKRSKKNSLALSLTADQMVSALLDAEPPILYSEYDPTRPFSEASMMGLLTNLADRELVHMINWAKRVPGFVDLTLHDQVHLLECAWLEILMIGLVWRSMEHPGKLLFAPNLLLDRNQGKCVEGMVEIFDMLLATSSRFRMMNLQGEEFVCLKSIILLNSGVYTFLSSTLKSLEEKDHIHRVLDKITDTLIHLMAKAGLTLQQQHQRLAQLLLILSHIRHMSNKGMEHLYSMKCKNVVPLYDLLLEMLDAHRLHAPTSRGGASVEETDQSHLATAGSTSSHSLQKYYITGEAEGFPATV
Experimental: Protein expression was analyzed as described (Wittmann et al., (2007) Cancer Res 67 (19):9549-9560) using antibodies purchased from Sigma-Aldrich—A5441 (β-actin) and Santa Cruz Biotechnology—sc-6259 (cytokeratin 18), sc-20680 (lamin A), sc-5546 (α-tubulin) and sc-8005 (ESR1).
Expression of ESR1 and loading control cytokeratin 18 (CK18—FIG. 7A) in whole cell extracts were detected by immunoblot (top). ESR1 levels relative to CK18 were quantitated by densitometry using Adobe Photoshop (bottom). […] ESR1 expression was detected as in FIG. 6A. For FIGS. 6C-6D, LTED MCF7 cells were plated in phenol red free media supplemented with FBS that was stripped of growth factors twice using charcoal. For FIG. 6C, after 48 hours, cells were treated for 24 hours with E2 (10^−7 M) or SERDs (10^−6 M) and ESR1 was analyzed as in FIG. 6A.

MCF7 xenograft tumors = test: MCF7 xenograft tumor study in estrogen-treated ovariectomized nu/nu mice; assay type: in vivo; conditions: 20 mg/kg sc daily
Experimental: A total of 90 female Nu/Nu mice were ovariectomized and implanted subcutaneous simultaneously with an estrogen pellet (Innovative Research of America) releasing 0.72 mg estradiol (E2) over 60 days. 2 days later an approximately 6 mm^3 fragment of an MCF7 xenograft tumor (isolated from a recently sacrificed estrogen treated nu/nu mouse) was inserted subcutaneous into the axial mammary gland. Tumor growth (by caliper measurement) and animal body weight were monitored 3× weekly until tumor volume reached ˜0.2 cm^3. […] Treatments were formulated in sterile corn oil and were administered daily by subcutaneous injection. After 3 weeks of treatments, animals were euthanized and serum and tissues saved for analysis. FIG. 1B depicts tumor volume analyzed using non-linear curve fit and exponential growth calculation (Graphpad Prism), followed by two-way ANOVA and Bonferroni analysis.
Xenograft tumor analysis: Estrogen-stimulated MCF7 tumors were initiated in the axial mammary gland of 6-week old estrogen-treated (0.72 mg/60 days pellet sc, Innovative Research of America) ovariectomized female NU/NU mice (in-house colony) by serial transfer and were measured as described (Wardell et al., (2013) Clin Cancer Res 19 (9):2420-2431). […] Animal tissues were processed and analyzed as described (Wardell et al., (2013) Clin Cancer Res 19 (9):2420-2431).
The ability of RAD1901 (FIG. 5A) to modulate the […] estradiol (E2) dependent transcriptional activity of the human estrogen receptor alpha (ESR1) and human estrogen receptor beta (ESR2) was assessed in transiently transfected SKBR3 cells using a synthetic reporter gene. […] DNA content as assessed by fluorescence was measured as a surrogate for cell proliferation. The relative increase in DNA fluorescence was calculated by normalizing to baseline values detected in a duplicate plate of cells that was harvested on day 1 prior to the initial treatment. […] For FIG. 5F, expression of ESR1 target genes in tumors was analyzed essentially as in (C).

ESR1 mRNA expression (ESR1): no effect
ESR1 expression (immunoblot) (ESR1; 24 hours, RAD1901 10^-11-10^-5 M): significantly downregulated
downregulation of ESR1 after pre-treatment with proteasome inhibitor MG132 (ESR1; MG132 1 hour pre-treatment, 6 hours ligand): completely blocked
SMILES: CCNCCc1ccc(CN(CC)c2cc(OC)ccc2[C@@H]2CCc3cc(O)ccc3C2)cc1 [RAD1901, (R)-6-{2-{ethyl[4-(2-ethylaminoethyl)benzyl]amino}-4-methoxyphenyl}-5,6,7,8-tetrahydronaphthalen-2-ol]
E2-stimulated growth of MCF7 tumors (MCF7 xenograft tumors): inhibited E2-stimulated growth of the tumors with efficacy similar to tamoxifen
expression of ESR1-target genes PGR and FHL1 in treated tumors (MCF7 xenograft tumors): suppress the expression of the ESR1-target genes PGR and FHL1 to the same degree
